One experiment has as its system pCTD_s2 or MCL1. Kind of experiment: Immunoblotting of CDK9-dependent biomarkers in ZR-75-1, T-47D and MCF7 cells. The class given is cell-based, human. Conditions: MCF7, T-47D, ZR-75-1 cells; 24 hours; highest concentration (20 µM). As for the experimental part: Protein lysates were prepared from the cells and analyzed for the expression of various biomarkers by immunoblotting. The biomarkers included phosphor-Rb at serines 807/811,phosphorylation of serine 2 on the C-terminal repeat domain on RNA polymerase II (pCTD) and MCL1. Images of Western blots were cropped to denote the relevant band(s) for clarity. […] Ki-67 positive events were obtained by gating versus background signal.

Experiment [1] concerns MCF7 cells. Kind of experiment: Ki-67 protein expression, MCF7. The class given is cell-based. As to conditions: Homo sapiens, 2 DT, read-out: EC50 Ki-67 levels. The procedure: Relative IC50/EC50 values were determined by curve fitting to a four parameter logistic equation: Y = bottom + ((top-bottom)/ (1+exp(HillSlope*(X – LnIC50)), where X is the natural log of dose/concentration, Y is response, decreasing as X increases, top and bottom are plateaus in the same units as Y, lnIC50 is the natural log of potency, in the same log units as X, and HillSlope measures the steepness of the curve. Data were plotted using GraphPad Prism.
After 72 hours, cells were stained with an anti-FOXM1 antibody and a secondary goat anti-rabbit IgG, Alexa Fluor® 488 conjugate; nuclei were stained with propidium iodide (PI). Alternatively, for assessment of Ki-67 levels, cells were treated for 2 DT and then stained with Ki-67 and a secondary goat anti-rabbit IgG, Alexa Fluor® 488 conjugate. Plates were read in an Acumen Explorer Ex3 (TTP Labtech) using Cellista software and the percentages of FOXM1 positive and Ki-67 positive cells were calculated over the background signal. Data were normalized in Excel using the mean value obtained from treatment with 2 µM BEZ235 as the minimum and the mean value obtained from treatment with 0.2% DMSO as the maximum.

The next experiment deals with EFM-19 cells. The experiment in a line: PI high content imaging of G1 arrest and cell proliferation, EFM-19. The class given is cell-based. As to conditions: Homo sapiens, at least 2 DT. The procedure: (§1) Relative IC50/EC50 values were determined by curve fitting to a four parameter logistic equation: Y = bottom + ((top-bottom)/ (1+exp(HillSlope*(X – LnIC50)), where X is the natural log of dose/concentration, Y is response, decreasing as X increases, top and bottom are plateaus in the same units as Y, lnIC50 is the natural log of potency, in the same log units as X, and HillSlope measures the steepness of the curve. Data were plotted using GraphPad Prism. […]
(§2) Preclinical characterization of abemaciclib in hormone receptor […]
(§3) METHODS High content imaging cell-based assays for monitoring phosphorylation of Rb (ser780), G1 arrest and […]
(§4) ATP at 20°C by a secondary goat anti-mouse IgG-Alexa Fluor 488 in a 96-well plate filtration assay format. […] Plates were read in an kinase buffer containing 68 mM Hepes at pH 7.5, 6.67 mM Acumen Explorer eX3 (TTP Labtech). […] 10µL of CDK6/cyclin corresponding to 500-530 nm and the percentage of D3 enzyme complex (Millipore 14-519, #D13BP009NA) cells with pRb signal relative to the total PI stained (1 nM final concentration in the assay) was added onto subpopulation was calculated by the instrument’s software a mix of substrate and test compound. […]
(§5) (EDTA) was used to determine the level of background evaluated by measuring PI signal using high content 33P in the absence of enzyme activity. […]

The test system of experiment [2] is MCF7 cells. The experiment in a line: PI high content imaging of G1 arrest and cell proliferation, MCF7. The format is cell-based. Conditions: Homo sapiens. As for the experimental part:
as §1, §2, §3, §4, §5

Experiment [3] deals with MCF7 cells. The experiment in a line: Multiplexed cell number, β-gal and TUNEL in MCF7. The format is cell-based, human. Conditions: 0.125 µM or 0.5 µM, 1-5 DT. As for the experimental part:
The viable cell number was determined by PI staining, the % of β-gal positive cells was determined using an antibody to β-gal, and the % of Tunel positive cells was determined by the incorporation of labelled dUTP. The data are plotted as the mean (+/- SD) of 2 experiments for CDK4 and CDK6 inhibitor treatment, and the mean of 6 experiments (+/- SD) for untreated samples. The duration of treatment is plotted along the x-axis in doubling times (DT) for MCF7 cells.
After treatment, cells were fixed, washed with PBS, permeabilized and β-gal was detected using anti-β-galactosidase antibody; for multiplexed assays, TUNEL staining was carried out using Roche TUNEL reagents as indicated above. Nuclei were also stained with PI for total cell counting. Plates were read in an Acumen Explorer Ex3 (TTP Labtech) and raw data were analyzed with Cellista software. Outputs were expressed as percentages of each identified subpopulation 1) positive β-gal, and 2) total cell number. The percentages of β-gal positive cells, TUNEL positive cells, and cell numbers were plotted in Microsoft Excel.

The mark [4] stands for this setting: n = 2, read-out: IC50 2n (G1 arrest).
Setting [5] is: n = 2, read-out: IC50 Cell number.

Where two headings read alike, the source gives them in different places.

From article PMC5642494 (Oncotarget, 2017) come the findings set out here.

As for `CCN1CCN(Cc2ccc(Nc3ncc(F)c(-c4cc(F)c5nc(C)n(C(C)C)c5c4)n3)nc2)CC1` [abemaciclib, Abemaciclib], in the experiment with pCTD_s2 or MCL1, the “levels of pCTD_s2 or MCL1” value was “no changes were observed”. In addition, the EC50 in the experiment with MCF7 cells [1] came to 42.1 nM. In addition, the IC50 in the experiment on EFM-19 cells (setting [4]) worked out at 32 ± 21 nM; with EFM-19 cells (setting [5]), 19 ± 4 nM; in the experiment on MCF7 cells [2] (setting [4]) it was 54 ± 16 nM; in the experiment with MCF7 cells [2] (setting [5]) it was 369 ± 370 nM. Moreover, the TUNEL staining result with MCF7 cells [3] is listed as “increase in TUNEL staining was observed by 2DT”.
